Each block holds one molecule with its values, some of them ahead of it.
What was measured:
tau-BiFC cells = experiment: Cell viability by cell nucleus staining with Hoechst; type: cell-based; details: forskolin 30 μM; for cytotoxicity / cell viability (number of nuclei stained with Hoechst): 10 μM compound, 48 hours
Description: (§1) To screen a new tau aggregation inhibitor, tau-BiFC cell model making it possible to easily observe tau oligomer formation in living cells was treated an FDA-approved drug library (a total of 1018 compounds). As shown in a schematic view of FIG. 1, tau-BiFC cells were plated on a 384-well plate. On the next day, the tau-BiFC cells were treated with FDA-approved drugs (treatment concentration: 10 μM) together with the compound forskolin (treatment concentration: 30 μM) that activates tau kinase PKA to induce tau aggregation. After 46 hours, the tau aggregation inhibitory activities of the drugs were analyzed, and cell viability by the compounds was analyzed by cell nucleus staining with Hoechst. […] To further confirm the tau aggregation inhibitory activity of the selected levosimendan, tau-BiFC cells were treated with DMSO, MB or levosimendan (treatment concentration: 10 μM) together with the compound forskolin (treatment concentration: 30 μM) that activates tau kinase PKA to induce tau aggregation. At this time, methylene blue (MB) known to show tau aggregation inhibitory activity was used as a comparative compound (positive control). After 48 hours, the tau aggregation inhibitory activity of the compound was analyzed, and cell viability by the compound was analyzed by cell nucleus staining with Hoechst.
Furthermore, it could be seen that the fluorescence value of the test group (levosimendan) decreased, similar to that of the positive control group (MB).
(§2) In addition, in order to further confirm the tau aggregation inhibitory activity of the selected levosimendan compound in living cells, tau-BiFC cells were treated with the tau inducer forskolin (treatment concentration: 30 μM) together with 1, 3, 10, 30 or 100 μM of the levosimendan compound. After 48 hours, tau aggregation reactions in the cells were analyzed by analysis of tau-BiFC response, and cell viability was analyzed to determine the toxicity of the compound.

tau [1] = target: T1, tau (Homo sapiens, UniProt P10636); experiment: Intracellular tau aggregation in tau-BiFC cell model (forskolin-induced); type: cell-based; set-up: fused on or other part: N-terminal and C-terminal non-fluorescent fragments of Venus fused to tau (BiFC reporter handles); details: forskolin 30 μM; for concentration dependence of tau-BiFC fluorescence value: 1-100 μM; for tau aggregation in tau-BiFC cells (Example 5, metabolites comparison): varying concentrations
Description: Furthermore, the following examples were performed based on tau-BiFC cell model. The tau-BiFC cell model is a reliable system for monitoring the interaction between tau oligomers, and is a Venus protein-based BiFC method in which the N-terminal and C-terminal non-fluorescent fragments of Venus protein are fused to tau. A further detailed definition and method for the tau-BiFC cell model are as described in Korean Patent No. 10-1546485.
as §1, §2
The levosimendan compound has two metabolite forms ([…] and activated (OR-1896)). […] Specifically, tau-BiFC cells were treated with varying concentrations of each of MB, levosimendan, OR-1855 and OR-1896 compounds together with the tau aggregation inducer forskolin (treatment concentration: 30 μM). After 48 hours, the extent of tau aggregation in the cells was analyzed.

tau [2] = target: T1, tau; experiment: Tau phosphorylation by Western blot of tau-BiFC cell lysates; type: cell-based; set-up: fused on or other part: N-terminal and C-terminal non-fluorescent fragments of Venus fused to tau (BiFC reporter handles); details: forskolin 30 μM, 36 hours
Description: In order to confirm whether the levosimendan compound would show tau aggregation inhibitory activity by inhibiting tau phosphorylation, Tau-BiFC cells were treated with the tau aggregation inducer forskolin (treatment concentration: 30 μM) and the levosimendan compound (treatment concentration: 15 μM). After 36 hours, the tau-BiFC cell lysates were analyzed by Western blot analysis to measure tau phosphorylation.

[3] = tested on: mouse cerebral cortical neuronal cells; experiment: Neuronal cell protection against TauK18P301L damage; type: cell-based; details: 10 μM, 2 hours before TauK18P301L 20 μg/mL; E18, DIV8
Description: Whether the levosimendan compound would protect neuronal cells from neuronal cell damage was examined.

tau [4] = target: T1, tau; experiment: In vitro tau aggregation with ThS (Thioflavin S); type: biochemical; details: Tau pre-Agg+100 uM DTT+0.1 mg/mL Heparin, 37° C.
Description: (§3) Thus, whether the levosimendan compound would be involved in the tau aggregation process to inhibit tau aggregation was examined. Specifically, whether the levosimendan compound would inhibit the tau aggregation process was analyzed in vitro, and whether the levosimendan compound would prevent additional aggregation of aggregated tau and dissociate the aggregation was analyzed in vitro. The tau aggregation process (Tau pre-Agg+100 uM DTT+0.1 mg/mL Heparin, incubated at 37° C.) in vitro was treated with varying concentrations of the levosimendan compound, and the degree of tau aggregation was analyzed with ThS (Thioflavin S). The ThS is a dye capable of measuring tau aggregation in vitro in real time, and is used as a fluorescence probe that detects β-sheet aggregation.

tau aggregates = tau aggregates (Homo sapiens, UniProt P10636); experiment: In vitro dissociation of tau aggregates; type: biochemical; details: Tau-Agg+100 uM DTT+0.1 mg/mL Heparin, 37° C., varying concentrations
Description: as §3

tau kinase = experiment: Tau kinase activity
[5] = 15 μM, vs forskolin-treated cells

T1 sequence (P10636 1-441 isoform P10636-8): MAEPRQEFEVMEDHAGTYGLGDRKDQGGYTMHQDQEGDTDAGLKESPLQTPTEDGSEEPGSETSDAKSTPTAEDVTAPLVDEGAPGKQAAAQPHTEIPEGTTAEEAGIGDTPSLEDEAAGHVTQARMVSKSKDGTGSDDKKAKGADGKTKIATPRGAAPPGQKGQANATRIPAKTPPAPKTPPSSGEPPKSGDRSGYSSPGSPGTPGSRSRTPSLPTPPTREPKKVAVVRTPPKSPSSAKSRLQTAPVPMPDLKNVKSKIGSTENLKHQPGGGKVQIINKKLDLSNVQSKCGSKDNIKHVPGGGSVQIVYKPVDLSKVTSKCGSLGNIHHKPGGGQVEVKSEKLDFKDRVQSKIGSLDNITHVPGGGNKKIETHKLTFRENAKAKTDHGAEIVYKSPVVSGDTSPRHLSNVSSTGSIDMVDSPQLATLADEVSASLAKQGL
Sequence of tau aggregates (P10636 1-441 isoform P10636-8): as above

SMILES: CN(C)c1ccc2nc3ccc(=[N+](C)C)cc-3sc2c1 [MB, methylene blue]
cytotoxicity / cell viability (number of nuclei stained with Hoechst) (tau-BiFC cells): decreased
cytotoxicity / cell viability (number of nuclei stained with Hoechst) (tau-BiFC cells; listed as methylene blue): cytotoxicity higher than that of the levosimendan compound
concentration dependence of tau-BiFC fluorescence value (tau [1]; 48 hours): concentration-dependent decrease in the fluorescence value
tau phosphorylation compared to forskolin-treated cells (tau [2]): decreased compared to that in the forskolin-treated cells

SMILES: CC(=O)Nc1ccc(C2=NNC(=O)C[C@H]2C)cc1 [OR-1896]
tau aggregation in tau-BiFC cells (Example 5, metabolites comparison) (tau [1]; 48 hours): did not show tau aggregation inhibitory activity

SMILES: C[C@@H]1CC(=O)NN=C1c1ccc(N)cc1 [OR-1855]
tau aggregation in tau-BiFC cells (Example 5, metabolites comparison) (tau [1]; 48 hours): did not show tau aggregation inhibitory activity

IC50 (tau [4]): 4.71 µM
IC50 (tau [1]; 1, 3, 10, 30 or 100 μM compound, 48 hours, read-out: IC50 of decrease in tau-BiFC fluorescence value): 2.2 µM
tau phosphorylation decrease at Ser199 (tau [2]; [5]): about 34%
tau phosphorylation decrease at Ser396 (tau [2]; [5]): about 35%
SMILES: C[C@@H]1CC(=O)NN=C1c1ccc(NN=C(C#N)C#N)cc1 [levosimendan]
cell viability in drug library screening (tau-BiFC cells; 10 μM, 46 hours): cell viability equal to that of drug-untreated normal cells
damage to neuronal cells, neuronal cell morphology and neurite length [3]: decreased compared to that in the negative control group (DMSO) and the positive control group (MB)
effect on tau aggregates in vitro (tau aggregates): had the effect of dissociating tau aggregates
changes in tau kinase activity (tau kinase): did not affect changes in tau kinase activity
tau-BiFC fluorescence value (RFU), tau aggregation inhibitory activity (tau [1]; 10 μM compound, 48 hours): decreased compared to that of the negative control group (DMSO)
tau aggregation inhibitory activity in drug library screening (tau [1]; 10 μM, 46 hours, 384-well plate): tau aggregation inhibitory activity equal to that of methylene blue (MB)
concentration dependence of tau-BiFC fluorescence value (tau [1]; 48 hours): concentration-dependent decrease in the fluorescence value
tau aggregation in tau-BiFC cells (Example 5, metabolites comparison) (tau [1]; 48 hours): decreased similar to that in the positive control group (MB)
tau phosphorylation compared to forskolin-treated cells (tau [2]): decreased compared to that in the forskolin-treated cells

Reference: US9962384B1, “Levosimendan compound for preventing or treating tau-related diseases” (KOREA INSTITUTE OF SCIENCE AND TECHNOLOGY, priority 2017, dated 2018)
